Columns and labels:
P. gingivalis = test: Related studies: brain abeta42 and neuroinflammation; type: in vivo
cathepsin V = cathepsin V (Homo sapiens (Human), UniProt O60911); test: Cathepsin V inhibition assay; type: biochemical; settings: Table 4; read-out: IC50 (nM) CatV
Experimental: (§1) The capacities of compounds of the present invention to inhibit the activity of cathepsins B, H, K, L, and S were measured in similar assays. Boc-Leu-Arg-Arg-AMC (20 μM) in sodium acetate buffer (50 mM, pH 5.5) containing DTT (1 mM) and EDTA (2 mM) was used for the Cathepsin B assay. L-Arg-AMC (20 μM) in sodium acetate buffer (50 mM, pH 5.5) containing DTT (1 mM) and EDTA (2 mM) was used for the Cathepsin H assay. Z-Phe-Arg-AMC (10 μM) in HEPES buffer (50 mM, pH 7.4) containing DTT (2.5 mM) and EDTA (1 mM) was used for the Cathepsin K assay. Z-Phe-Arg-AMC (20 μM) in sodium acetate buffer (50 mM, pH 5.5) containing DTT (1 mM) and EDTA (2 mM) was used for the Cathepsin L assay. Z-Leu-Arg-AMC (10 μM) in sodium acetate buffer (25 mM, pH 4.5) containing DTT (2.5 mM) and NaCl (50 mM) was used for the Cathepsin S assay. The capacities of the compounds to inhibit the activity of cathepsins F, V, and Z were also measured.
(§2) Further assays to measure the inhibitory activity of compounds of the present invention against Kgp and cathepsins B, H, K, L, and S were conducted as described in Example 66. The capacities of the compounds to inhibit the activity of cathepsins F, V, and Z were also measured.

cathepsin Z = cathepsin Z (Homo sapiens (Human), UniProt Q9UBR2); test: Cathepsin Z inhibition assay; type: biochemical; settings: Table 4; read-out: IC50 (nM) CatZ
Sequence of cathepsin Z (Q9UBR2 62-303): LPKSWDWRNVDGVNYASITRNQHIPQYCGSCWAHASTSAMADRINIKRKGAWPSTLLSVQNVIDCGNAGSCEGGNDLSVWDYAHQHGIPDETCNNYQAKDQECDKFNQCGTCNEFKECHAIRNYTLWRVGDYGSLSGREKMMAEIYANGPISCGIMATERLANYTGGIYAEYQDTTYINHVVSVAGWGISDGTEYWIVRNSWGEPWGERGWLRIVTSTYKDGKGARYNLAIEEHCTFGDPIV
Experimental: as §1, §2

Cathepsin S = Cathepsin S (Homo sapiens (Human), UniProt P25774); test: Cathepsin S inhibition assay; type: biochemical; settings: Table 4; read-out: IC50 (nM) CatS
Sequence of Cathepsin S (P25774 115-331, species assumed): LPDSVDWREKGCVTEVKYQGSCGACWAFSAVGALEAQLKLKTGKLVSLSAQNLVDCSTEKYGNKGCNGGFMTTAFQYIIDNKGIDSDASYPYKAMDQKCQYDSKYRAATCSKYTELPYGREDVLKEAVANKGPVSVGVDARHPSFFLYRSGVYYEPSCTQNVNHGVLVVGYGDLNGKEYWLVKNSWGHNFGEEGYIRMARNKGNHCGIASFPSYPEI
Experimental: as §1, §2

arginine gingipain, Rgp = test: Inhibition of arginine gingipain; type: biochemical, Porphyromonas gingivalis; settings: 100 nM
Kgp = Kgp (Porphyromonas gingivalis (Bacteroides gingivalis), UniProt Q51817); test: Cy5 activity-based probe detection of Kgp in P. gingivalis lysate; type: binding; settings: 100 nM, FIG. 9C
Sequence of Kgp (Q51817 229-737 limits assumed): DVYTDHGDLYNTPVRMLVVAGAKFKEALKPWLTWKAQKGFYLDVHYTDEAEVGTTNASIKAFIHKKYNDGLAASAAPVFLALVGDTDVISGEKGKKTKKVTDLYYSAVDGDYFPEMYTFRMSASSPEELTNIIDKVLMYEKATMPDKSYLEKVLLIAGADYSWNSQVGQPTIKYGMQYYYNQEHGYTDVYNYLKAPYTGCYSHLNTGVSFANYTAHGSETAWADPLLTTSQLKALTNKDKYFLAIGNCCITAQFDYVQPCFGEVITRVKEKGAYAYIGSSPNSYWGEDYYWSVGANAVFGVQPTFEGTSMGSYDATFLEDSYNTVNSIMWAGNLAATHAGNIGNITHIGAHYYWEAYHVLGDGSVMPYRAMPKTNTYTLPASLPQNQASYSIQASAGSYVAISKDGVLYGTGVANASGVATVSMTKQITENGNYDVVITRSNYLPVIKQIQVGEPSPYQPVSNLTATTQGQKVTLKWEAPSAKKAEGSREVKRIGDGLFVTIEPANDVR
Experimental: It has a warhead that binds to the Kgp active site, a peptide-based core, and a Cy5 fluorophore for detection. Labeled target proteins can be visualized by biochemical separation of a sample with fractionation by 2-D gel electrophoresis and detection of fluorescent signals from Cy5 at the appropriate excitation and emission wavelength. Incubation of a fixed concentration of the probe following binding of Kgp to a test compound (e.g., a candidate Kgp inhibitor) results in binding of the activity probe to Kgp active sites not already bound by the test compound.
10^8 bacteria were collected and centrifuged at 5000 g for 10 min at 4° C., and the supernatant was discarded. The bacterial cell pellet was lysed with 1 mL of B-Per lysis buffer (Thermo Fischer) on ice for 10 min, then centrifuged for 10 min at 14000 g, 4° C. Supernatant-containing protein lysate was collected. Biological samples were lysed with B-Per lysis buffer for 10 min at 4° C.
Biological samples, P. gingivalis lysate or purified Kgp were incubated with quenchable Cy5 probe compound 71 (1 μM) for 1 h at 37° C. with shaking. Then, samples were denatured with NUPAGE LDS sample buffer (Thermo Fisher) containing 50 mM DTT at 95° C. for 10 min and subjected to SDS-PAGE electrophoresis using a Criterion 4-15% precast gel (Bio-Rad) and Tris/Glycine/SDS running buffer (Bio-Rad). The gel was run at 75V for 10 min and then 125V for 1.5 h. The gel was then removed from the plastic cassette and subjected to Cy5 visualization with a ChemiDoc imaging system (Bio-Rad).
Samples were labeled with quenchable Cy5 probe compound 71 (1 μM) for 1 h at 37° C. with shaking. For immunoprecipitation of Cy5 labeled Kgp, the samples were then incubated with 10 μg of rabbit polyclonal CAB102 antibody with rotation overnight at 4° C. Then, samples were incubated with prewashed Dynabead Protein G beads with rotation for 20 min at room temperature. The samples were washed 4 times with 200 μL of washing buffer, using a magnetic rack. […]

Sequence of cathepsin V (O60911 114-334): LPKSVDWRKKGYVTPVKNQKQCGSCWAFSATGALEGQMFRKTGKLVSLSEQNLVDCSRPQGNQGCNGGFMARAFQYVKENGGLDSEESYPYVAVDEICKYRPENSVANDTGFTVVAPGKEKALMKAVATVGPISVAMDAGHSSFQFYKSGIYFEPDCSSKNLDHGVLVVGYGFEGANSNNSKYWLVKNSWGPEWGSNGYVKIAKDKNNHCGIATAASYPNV

For `NCCCC[C@H](NC(=O)C1CCCC1)C(=O)COc1c(F)ccc(F)c1F` [Compound 1, (S)—N-(7-amino-2-oxo-1-(2,3,6-trifluorophenoxy)heptan-3-yl)cyclopentanecarboxamide], the “induction of brain abeta42” value (P. gingivalis) was “reduce induction”, the neuroinflammation (P. gingivalis) was “reduce induction” and the IC50 (cathepsin V) was > 10000 nM. For the same compound, the IC50 (cathepsin Z) was > 10000 nM, the IC50 (Cathepsin S) was > 10000 nM and the “inhibition of arginine gingipain, Rgp” value (arginine gingipain, Rgp) was “does not inhibit”. The “competition with probe compound 71 for Kgp active site” value (Kgp) was “competes for active site binding”.

Reference: US10730826B2, “Ketone inhibitors of lysine gingipain” (CORTEXYME, INC., priority 2016, dated 2020)
